What all share (assay type): cell-based, human
Assay [1] relates to melanocyte strain 1513c. The experiment in a line: Cell proliferation as a measure of stability, strain 1513c. Here is the method: (§1) With continued reference to FIGS. 7, 8 and 9, to determine the stability of CUV9900 versus that of NDP-MSH and α-MSH, melanocytes were treated with 1 nM of each peptide, namely with CUV9900, NDP-MSH and α-MSH, for a total of 6 days, or with 1 nM peptides that were incubated for 5 hours at 37° C. prior to addition to the cultures, every other day, for a total of 6 days. Tyrosinase activity was measured at the end of treatment. In the experiments, cell number represents the mean percent of control of 3 determinations/group±SE, and tyrosinase activity data represent the mean percent of control of 6 determinations±S.E. It should be noted that for the sake of reproducibility the experiment of strain 1513c of FIG. 9 was performed once more 6 months later than the experiment of FIG. 7.
Peptides were incubated at 37 degrees Celsius for 5 hours and then split into groups. Cell proliferation was a measure of stability, whereby the experiments on strain 1513c were divided in period 1 and 2 under standard conditions.
Cell proliferation as a measure of stability is shown in Tables 1 to 3 below, wherein Table 1 is based on data derived from FIG. 7, Table 2 is based on data derived from FIG. 9, and Table 3 is based on data derived from FIG. 8: […]

For assay [2], the system named is melanocyte strain 1513c. The assay is described as follows: Tyrosinase activity as a measure of stability / residual effect, strain 1513c. The method, then: To determine the residual effect of CUV9900, as compared to NDP-MSH and α-MSH, on tyrosinase activity, melanocytes were treated with either CUV9900 or NDP-MSH at the concentrations previously described for a total of 3 days. Tyrosinase activity was measured at the end of the 3 days of treatment, and 2 and 4 days after maintenance of the melanocytes in the complete absence of any treatment.
as §1
Melanocytes were treated for 3 days with the designated concentrations of CUV9900, NDP-MSH, or MSH, then maintained in absence of peptides for 4 days. Tyrosinase activity was determined 3 days after treatment.
Comparison of stability of CUV9900, NDP-MSH and MSH was compared in 1513c, as shown in FIG. 7; the strain was treated for 6 days with 1 nM CUV9900, NDP-MSH or MSH with fresh medium and peptide replenished every 2 days. Melanocytes were treated according to the same experiment protocol but each peptide was incubated for 5-7 hours at 37 degrees Celsius. […] The assessment of tyrosinase was statistically different from control, as determined by ANOVA (p=<0.05).
Tyrosinase activity as a measure of stability is shown in Tables 4 to 6 below, wherein Table 4 is based on data derived from FIG. 7, Table 5 is based on data derived from FIG. 9, and Table 6 is based on data derived from FIG. 8: […]

In assay [3] the test system is Melanocytes. The assay is described as follows: DNA damage as measured by cyclobutane pyrimidine dimers (CPD), flow cytometry. The conditions noted are these: 48 h after 105 mJ/cm^2 UV. The method, then: Cyclobutane pyrimidine dimers (CPD), the major determinant of UV-induced DNA photoproducts, were detected using flow cytometry analysis.
Melanocytes were pretreated with 0 (control), 10 nM α-MSH or 1 nM NDP-MSH or 1 nM CUV9900 for 4 days prior to, and 2 days after exposure to 105 mJ/cm^2 UV, harvested 48 hours post irradiation, fixated with 70% ethanol, the DNA denatured with 1N HCl/0.2 mg/ml pepsin, then renaturated with sodium tetraborate. Melanocytes were blocked and incubated overnight at 4° C. with the anti-CPD antibody (diluted 1:500; TDM-2 clone), then with goat anti-mouse IgG Alexa Fluor 488 (Invitrogen, Carlsbad Calif.) for 1 hour, and finally resuspended in PBS containing RNase A and propidium iodide. Melanocytes were analyzed on a Coulter EPICS XL flow cytometer (Beckman Coulter) using a 488 nm argon ion laser A 525 band pass filter was used for the Alexa fluor 488 and a 620 band pass filter for the propidium iodide.
A general note: Flow cytometry measures light scatter and fluorescence of single cells or particles in a stream.

Assay [4] has as its system melanocyte strain 103c. The experiment in a line: UV-induced apoptosis by Annexin V staining, strain 103c. The conditions noted are these: 1 nM, 4 days prior and 1 day following 105 mJ/cm^2 UV. The method, then:
With reference to FIGS. 12 and 13, melanocytes were maintained for the duration of the experiment in medium lacking bovine pituitary extract (BPE) to determine the survival effect of α-MSH or its analogs in the absence of the anti-apoptotic effect of TPA. Melanocytes were treated with 0, 1 nM α-MSH, 1 μM Forskolin, or 1 nM NDP-MSH or CUV9900 for 4 days prior to, and 24 h after exposure to a dose of 105 mJ/cm^2 UV, then stained for Annexin Va staining. The data are represented as percent increase above control, with triplicate dishes included in each group.
Comparison of the effect of CUV9900, NDP-MSH and MSH on the UV-induced apoptosis were made in the melanocyte strains 103c and melanocyte strain 1513c of FIGS. 12 and 13, respectively. Both strains were treated with 1 nM CUV9900, NDP and MSH, respectively for 4 days prior and 1 day following irradiation. Floating as well as attached cells were harvested and stained for Annexin V, and analyzed by flow cytometry.

For assay [5], the system named is melanocytic strain 103c. The assay is described as follows: UV-induced generation of hydrogen peroxide (luminol), strain 103c. To be noted: 1 nM, 105 mJ/cm^2 UV, 0, 30 and 45 minutes after irradiation. The text has this: (§2) With reference to FIGS. 10 and 11, melanocytes were irradiated with a bank of FS 20 lamps, with 75% emission in the UVB, and 25% emission in the UVA spectra, with peak emission at 313 nm wavelength. Any emission of UVC rays from the UV source (FS 20 lamps) was blocked by Kodacel filter. Prior to irradiation, the culture medium was replaced by PBS, which was removed after UV exposure, and fresh medium added.
(§3) Melanocytes were irradiated with 105 mJ/cm^2 UV, and treated immediately while in PBS with 0, 1 nM α-MSH or 1 nM CUV9900. Generation of hydrogen peroxide, representative of reactive oxygen species (ROS), was determined by measuring the luminescence of luminol at 0, 30, and 45 min after UV exposure. Triplicate dishes were included in each group, and duplicate samples from each dish were used for measurement of hydrogen peroxide at each time point. Each data point represents the mean of 6 determinations/group±S.E.
(§4) In the melanocytic strain 1505b of FIG. 10 and melanocytic strain 103c of FIG. 11, hydrogen peroxide generation was assessed at 0, 30 and 45 minutes after UV irradiation.

Assay [6] concerns melanocytic strain 1505b. The assay is described as follows: UV-induced generation of hydrogen peroxide (luminol), strain 1505b. The conditions noted are these: 1 nM.
Description: as §2, §3, §4

Non-standard residues stand in square brackets, D forms with d. Nle = CCCC[C@H](N)C(=O)O

For the substance “Ac-Nle-Glu His-D-Phe-Arg-Trp-NH2 (Ac-[Nle]EH[dF]RW-NH2; SMILES CCCC[C@H](NC(C)=O)C(=O)N[C@@H](CCC(=O)O)C(=O)N[C@@H](Cc1c[nH]cn1)C(=O)N[C@H](Cc1ccccc1)C(=O)N[C@@H](CCCNC(=N)N)C(=O)N[C@@H](Cc1c[nH]c2ccccc12)C(N)=O) [CUV9900, hexapeptide alpha-MSH analogue]”, the “more stable than MSH (cell proliferation)” value in assay [1] (strain 1513c) is 3.4%. The “more stable than NDP-MSH (cell proliferation)” value in assay [1] (strain 1513c) is 0.65%. Further, in assay [1] (strain 1513c [2], mean), the “Cell proliferation (cell number), Mean” value is recorded as 119.9% of control. In addition, in assay [2] (first experiment in strain 1513c (Table 4)), the “tyrosinase activity, comparison in words” value was “increased tyrosinase activity in comparison to Control and MSH, but marginally less than NDP-MSH”. Also, the “Tyrosinase activity, Mean” value in assay [2] (strain 1513c [1], 1 nM, mean of columns 1-3) is reported as 215.7 % of control. Moreover, the “effect of incubating the peptide on its stimulation of tyrosinase activity” value in assay [2] (strain 1513c, 1 nM peptide incubated 5-7 hours at 37 degrees Celsius) is given as “no effect on its ability to stimulate tyrosinase activity”. Further, the “Tyrosinase activity, Mean [1 + 2]” value in assay [2] (strain 1513c, mean over experiments [1] and [2]) is 284.2 % of control. In assay [3], the “CPD cellular DNA damage, comparison in words” value was “less CPD cellular DNA damage in comparison with and NDP-MSH and slightly higher values than alpha-MSH”. In addition, in assay [4], the “anti-apoptotic effect (Annexin V), comparison” value is on record as “equal anti-apoptotic effect than NDP-MSH”. Further, the “UV-induced hydrogen peroxide generation” value is recorded as “significant reduction of UV-induced hydrogen peroxide generation” in assay [5]; “significant reduction of UV-induced hydrogen peroxide generation” in assay [6] (strain 1505b, 105 mJ/cm^2 UV, 0, 30 and 45 minutes after irradiation). For the same substance, the “hydrogen peroxide generation, comparison” value in assay [6] (45 minutes after irradiation) was “lower hydrogen peroxide generation in comparison with both NDP-MSH and MSH”.

The values above are taken from patent US20130331331A1, “HEXAPEPTIDE WITH IMPROVED ACTIVITY IN THE REPAIR OF CELLULAR DNA OF DERMAL CELLS” (priority 2011, published 2013).
